According to ChEMBL document CHEMBL1141071, “Carbonic anhydrase inhibitors: stacking with Phe131 determines active site binding region of inhibitors as exemplified by the X-ray crystal structure of a membrane-impermeant antitumor sulfonamide complexed with isozyme II” (J Med Chem, 2005):
pKi: −log10 of the molar value.

Biological target: Carbonic anhydrase 9 (Homo sapiens, UniProt Q16790)
Description: Inhibition of catalytic domain of human recombinant carbonic anhydrase IX

Cc1ccc(-c2cc(C(F)(F)F)nn2-c2ccc(S(N)(=O)=O)cc2)cc1 [CELECOXIB]
pKi: 7.80
